In patent US6887894B2, “Use of lipoic acid for improving the bioavailability of mineral salts” (BASF Aktiengesellschaft, priority 2000, dated 2005):
“And” between values parts separate entries of the source, which are not always exact repeats. Equal entries are not always repeated. Marks after values point to notes of the source that are not given here.

Assays:
Assay type in all cases: in vivo
[1] = Study 1/Study 2: bioavailability of Zn lipoate and ZnSO4 in rats (Example 4, Comparison Example 1)
Experimental: Male Albino rats (Wistar) of an initial weight of 40 g were used. The animals were kept during each 28-day experimental period at a room temperature of 22° C., a relative humidity of approximately 55% and in a 12-hour light-dark cycle. The rats were housed individually in Makrolon cages with stainless steel bottoms which permitted controlled feed intake and quantitative collection of feces and urine. The feed was provided once a day at 8^00. The live mass of the rats was determined weekly, feces and urine were collected every day at 10^00 and 17^00. At the end of the experiment, the rats were decapitated after chloroform anesthesia. • 4.2 Description of the diets and experimental design
6 rats are used per experimental group. The mealy diets were administered ad lib. […] The control group (group 1) received the PA-free base diet.
The amounts of feces and urine produced separately in the metabolic cages are collected quantitatively every day and stored at −22° C. To avoid any losses of N in the urine collection vessels, 1 ml of 20% strength HCl (Suprapur) is added to each of the vessels daily. For further analysis, the sample material is freeze-dried for 48 h. • 4.3.2 Organ and tissue samples
The right femur, liver and testes are removed immediately after decapitation and complete exsanguination of the animals and the fresh mass is determined. The samples are sealed in plastic film and stored at −22° C. until further analysis. • 4.3.3 Blood
The rats are decapitated at the end of the experiment after complete narcosis with chloroform and the blood collected in heparinized plastic tubes. 40 I.U. of heparin sodium are introduced per ml of blood. […]
Zinc is determined by means of atomic absorption spectrophotometry (AAS) in an acetylene flame. • 4.5 Diagnosis of zinc status • 4.5.1 Determination of the plasma zinc concentration
The plasma zinc concentration is measured directly in the flame by means of AAS (Philips, PIJ 9400). […]
The enzyme activity is measured kinetically on a semimicroscale at a wavelength of 405 nm and 25° C. using a UV spectrophotometer. […]

[2] = Study 3: zootechnical parameters (feed intake, live weight) of growing rats; settings: for LW Gain: 28 days; for Live weight d0: initial weight
Experimental: (§1) 36 male Wistar albino rats (Harlan Winkelmann, Borchen) having an initial weight of 47.0±2.63 g were randomly divided into 6 groups each of 6 animals and fed the diets specified in Table 7 (experimental design) and Section 5.2 over a period of 28 days. The animals were kept individually in Makrolon cages on stainless grids under standard conditions (22° C., 55% relative humidity, 12 hour light/dark rhythm). Feed and deionized drinking water were available to the experimental animals ad libitum. During the 2nd and 3rd experimental week (metabolism phase) feces were collected quantitatively. After completion of the experimental phase (day 28), the animals were decapitated under CO2— anesthesia, exsanguinated and the tissue to be analyzed was removed. Groups Ib, IIb and IIIb here are Example 5, while Groups Ia, IIa and IIIa are Comparison Example 2.
Parameters used to estimate Zn availability were the zootechnical parameters feed intake, live weight development and live weight increase, apparent Zn absorption, alkaline phosphatase activity in plasma, plasma and femur Zn concentration and metallothionin concentration in liver tissue. • 5.2 Experimental diets
The experimental animals were fed semisynthetic diets based on high-purity components (corn starch, egg albumin protein, sucrose, soybean oil and cellulose) over a period of 28 days (see Table 8 for composition of the base diet), the experimental diets differing with respect to the type of zinc compound supplemented, the absolute Zn concentration and the phytic acid content (0.4% PA from NaPA, Sigma-Aldrich, Steinheim) (see Table 7).
Zn supplements used were Zn ((R)-α-Lipoat)2(H2O)2 from Example 1 (Example 5) and Zn sulfate (ZnSO4.7 H2O analytical grade, Merck, Darmstadt) (Comparison Example 2). The Zn concentrations of the experimental diets Ia-IIb were set at a level of 10 mg/kg of diet estimated to be marginal for growing rats, in order to enable investigation of the availability of the Zn supplements under test in the suboptimun supply range.

[3] = Study 3: Zn intake, fecal excretion and apparent absorption of zinc; settings: rats
Experimental: as §1
During the two-week metabolism phase, the rat feces were collected daily, adherent feed residues and other impurities were removed and the samples were stored at −20° C. At the end of the metabolism period the fecal weight was determined quantitatively and feces were then freeze-dried under vacuum over a period of 48 h (Gamma 1-20, Christ, Osterode). The dried samples were finely around using a domestic grinder (Moulinette electronic 89902) and stored at ambient temperature in PE bottles.
A sample aliquot of 1.5 g or the freeze-dried and ground fecal samples was dried for 24 h at 105° C. to remove residual water and then ashed in a muffle furnace at 450° C. for 21 h. The ash residue was dissolved by acid addition and then analyzed quantitatively. The Zn concentration in the fecal samples was determined by flame-AAS (Philips, PU 9400, Kassel). • 5.3.4 Diagnosis of Zn status
(§2) Zn absorption was calculated, without taking into account endogenous level as a difference between element […] and fecal excretion (=apparent absorption). Plasma Zn concentration was determined by AAS (Philips, PU 9400, Kassel). The samples were diluted with 0.1 M HCl in a ratio of 1:20 (v/v). The activity of the Zn metalloenzyme alkaline phosphatase (AP) (E.C. 3.1.3.1) wan assayed using the individual chemicals diethanolamine buffer and p-nitrophenyl phosphate according to the recommendations of the […] FÜR […] CHIMIE [German Clinical Chemistry Society] ([…] FÜR […] CHEMIE (1972). Standardmethode zur Bestimmung der Aktivität der alkalischen Phosphatase (AP) [Standard Method for Determining Alkaliur Phosphatase (AP) Activity]. Z. klin. Chem u. klin. Biochemie. 10, 191). • 5.3.5 Metallothionin in liver tissue

[4] = Study 3: Zn concentration in the femur; settings: rats; for Zn concentration in Femur: day 28
Experimental: as §1
The ash solutions were prepared by the principle of wet ashing. The sample material was admixed with 10 ml of 65% strength HNO3 (Merck, Suprapur) and then boiled under a reflux condenser in a digestion apparatus (Gerhardt SMA-20, Bonn). This oxidatively degraded the organic matrix and completely mineralized the test material. The Zn concentration was determined in the ash solutions by flame-AAS (Philips, PU 9400, Kassel). • 5.3.3 Analysis of the fecal samples

[5] = tested on: alkaline phosphatase (AP) (E.C. 3.1.3.1); assay: Study 3: alkaline phosphatase activity in plasma; settings: rats, day 28
Experimental: as §1, §2

[6] = tested on: metallothionin; assay: Study 3: metallothionin in liver tissue; settings: rats; for Metallothionin concentration in liver tissue: day 28
Experimental: as §1
Total MT concentration in liver tissue was determined using the cadmium-binding method of EATON and TOAL (EATON, D. L., TOAL, B. F. (1982): Evaluation of the cadmium/hemoglobin affinity assay for the rapid determination of metallothionein in biological tissues. Toxicol Appl. Pharmacol. 66, 134-142) in a modification tested at the Giessen Institute (LEUNERT, V. (1994): Einfluβ von Zink sowie fetalem Kälberserum, bovinem Serumalbumin und calciummobilisierenden Rezeptoragonlsten auf Metallothionein in primär kultivierten Rattenhepatocyten [Effect of zinc and fecal calf serum, vine serum albumin and calcium-immobilizing receptor agonists on metallothionin in primary cultivations of rat hepatocytes]. Inaugural dissertation at the Institut für Tierernahrung und Ernährungse-physiologie [Institute of Animal Nutrition and Nutritional Physiology] of the University of Cicesen, Verlag Shaker, Aachen, PALLAUF et al. 1995). The protein content in liver homogenates war determined using the Lowry-Folin method (DAWSON, R. M. C. ELLIOTT, D C; JONES, K. M. (1986): Data for biochemical research, 3rd ed., Clarendon Press, New York, 543). • 5.3.5. Statistical analysis

[7] = 10 ppm Zn, PA-free diet (group I)
[8] = 20 ppm Zn + 0.4% PA (group III)

absolute Zn absorption, Zn lipoate group versus Zn sulfate group ([3]; 20 mg Zn/kg of diet + 0.4% PA (groups IIIa, IIIb)): statistically significant higher
Apparent absorption of Zn ([3]; 10 ppm Zn + 0.4% PA (group II)): 47.3 ^a %
Apparent absorption of Zn (absolute) ([3]; 10 ppm Zn + 0.4% PA (group II)): 0.446 ^a mg/14 d
Fecal excretion of Zn ([3]; 10 ppm Zn + 0.4% PA (group II)): 0.494 ^a mg/14 d
Apparent absorption of Zn [3, 7]: 73.6 ^b %
Apparent absorption of Zn (absolute) [3, 7]: 1.24 ^b mg/14 d
Fecal excretion of Zn [3, 7]: 0.445 ^a mg/14 d
Apparent absorption of Zn [3, 8]: 48.4 ^a %
Apparent absorption of Zn (absolute) [3, 8]: 1.60 mg/14 d and 1.60 ^c mg/14 d
Fecal excretion of Zn [3, 8]: 1.71 ^b mg/14 d
apparent Zn absorption (%), effect of Zn lipoate supplementation ([3]; PA diets, group IIa to IIb and IIIa to IIIb): increase
Zn concentration in Femur ([4]; 10 ppm Zn + 0.4% PA (group II)): 41.2 ^a μg/g FW
Zn concentration in Femur [4, 7]: 79.2 ^c μg/g FW
Zn concentration in Femur [4, 8]: 64.1 ^b μg/g FW
level of Zn incorporation into the femur tissue, compared with Zn sulfate ([4]; with addition of phytate): beneficial effect
Compound: O=C(O)CCCC[C@@H]1CCSS1 [Zn lipoate, Zn((R)-α-lipoate)2(H2O)2]
zinc deficiency symptoms (anorexia, alopecia, depression of growth) ([1]; diet with 0.4% NaPA, high dose 20 mg Zn/kg of feed, 28 days): disappear completely
Zn status parameters of blood plasma (Zn concentration, free zinc binding capacity, alkaline phosphatase activity) and femur and liver Zn concentration ([1]; in comparison with Zn sulfate): improved
Feed intake Total ([2]; 10 ppm Zn + 0.4% PA (group II)): 186 ^a g/28d
Feed intake d1-d7 ([2]; 10 ppm Zn + 0.4% PA (group II)): 39.5 ^ab g
Feed intake d8-d14 ([2]; 10 ppm Zn + 0.4% PA (group II)): 46.5 ^a g
Feed intake d15-d21 ([2]; 10 ppm Zn + 0.4% PA (group II)): 48.2 ^a g
Feed intake d22-d28 ([2]; 10 ppm Zn + 0.4% PA (group II)): 51.3 ^a g
Live weight d7 ([2]; 10 ppm Zn + 0.4% PA (group II)): 60.0^ab g
Live weight d14 ([2]; 10 ppm Zn + 0.4% PA (group II)): 82.5^a g
Live weight d21 ([2]; 10 ppm Zn + 0.4% PA (group II)): 99.1^a g
Live weight d28 ([2]; 10 ppm Zn + 0.4% PA (group II)): 114.2^a g
LW Gain ([2]; 10 ppm Zn + 0.4% PA (group II)): 67.0^a g
Live weight d0 ([2]; 10 ppm Zn + 0.4% PA (group II)): 47.2 g
Feed intake Total [2, 7]: 307 ^b g/28d
Feed intake d1-d7 [2, 7]: 54.9 ^ab g
Feed intake d8-d14 [2, 7]: 78.7 ^c g
Feed intake d15-d21 [2, 7]: 86.9 ^c g
Feed intake d22-d28 [2, 7]: 86.5 ^b g
Live weight d7 [2, 7]: 75.6^ab g
Live weight d14 [2, 7]: 122.5^b g
Live weight d21 [2, 7]: 159.2^c g
Live weight d28 [2, 7]: 185.8^c g
LW Gain [2, 7]: 138.7^c g
Live weight d0 [2, 7]: 47.1 g
Feed intake Total [2, 8]: 300 ^b g/28d
Feed intake d1-d7 [2, 8]: 60.0 ^b g
Feed intake d8-d14 [2, 8]: 77.3 ^c g
Feed intake d15-d21 [2, 8]: 79.2 ^bc g
Feed intake d22-d28 [2, 8]: 83.5 ^b g
Live weight d7 [2, 8]: 77.9^b g
Live weight d14 [2, 8]: 119.1^b g
Live weight d21 [2, 8]: 147.4^bc g
Live weight d28 [2, 8]: 173.2^bc g
LW Gain [2, 8]: 125.9^bc g
Live weight d0 [2, 8]: 47.3 g
total feed intake, change owing to Zn-α-lipoate feeding ([2]; 28-day period, versus Zn sulfate groups): increase
live weight gain, Zn lipoate compared with Zn sulfate ([2]; in each case (groups I, II, III)): increase
Alkaline Phosphatase activity in plasma ([5]; 10 ppm Zn + 0.4% PA (group II)): 225 ^a mU/ml Plasma
Alkaline Phosphatase activity in plasma [5, 7]: 365 ^b mU/ml Plasma
Alkaline Phosphatase activity in plasma [5, 8]: 384 ^b mU/ml Plasma
Metallothionin concentration in liver tissue ([6]; 10 ppm Zn + 0.4% PA (group II)): 7.94 ng MT/mg Protein
Metallothionin concentration in liver tissue [6, 7]: 8.32 ng MT/mg Protein
Metallothionin concentration in liver tissue [6, 8]: 8.71 ng MT/mg Protein
hepatic MT concentration, Zn lipoate versus ZnSO4 as Zn source ([6]; all groups (I, II and III)): nominal increases
